What all share (assay type): cell-based
For test [1], the system named is ATCC13883 strain (Klebsiella pneumoniae). Nature of the test: Broth microdilution, antibacterial activity of the compound used alone. The source says: (§1) The broth microdilution method was used to test the antibacterial effects of the compounds of the present invention against various Gram-negative bacterial strains when used alone.
(In general: In broth dilution the organism is exposed to a series of concentrations in liquid medium.)

In test [2] the test system is ATCC9027 strain (Pseudomonas aeruginosa). The test is described as above.
Description: as §1

Test [3] relates to ATCC25922 strain (Escherichia coli). Described as above.
Description: as §1

The subject of test [4] is ATCC19606 strain (Acinetobacter baumannii). The description is as above.
Description: as §1

The subject of test [5] is ATCC13883 strain (Klebsiella pneumoniae). Description: Checkerboard antibacterial synergistic activity test with polymyxin E (FIC). Also noted: key: FIC≤0.5 synergy; 0.5–1 additive; 1–2 indifferent; ≥2 antagonism. To be noted: combined with polymyxin E. The procedure, abridged: (§2)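 Broth checkerboard synergy with colistin; listed dilutions are working solutions, not final well levels. Overnight incubation, 16 h at 37° C.; FIC ≤0.5 denotes synergy, ≥2 antagonism.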

The subject of test [6] is ATCC9027 strain (Pseudomonas aeruginosa). Described as above. As to conditions: combined with polymyxin E. Also noted: key: FIC≤0.5 synergy; 0.5–1 additive; 1–2 indifferent; ≥2 antagonism. The procedure, abridged: as §2
The test system of test [7] is ATCC25922 strain (Escherichia coli). The test is described as above. Also noted: key: FIC≤0.5 synergy; 0.5–1 additive; 1–2 indifferent; ≥2 antagonism. As to conditions: combined with polymyxin E. The method in brief:
as §2

Test [8] concerns ATCC19606 strain (Acinetobacter baumannii). The test is described as above. To be noted: combined with polymyxin E. Details: key: FIC≤0.5 synergy; 0.5–1 additive; 1–2 indifferent; ≥2 antagonism. The method in brief: as §2

SMILES strings stand for the structures. Converted amounts (≈) assume the structure as drawn.

On to `CC(=O)Nc1cc(-c2csc(N=C(N)N)n2)ccc1-c1ccccc1` [Compound I-75], for which, in test [1], the “Antibacterial activity of the compound of Formula I, ATCC13883” value (shortened to “Antibacterial activity … ATCC13883”) was determined as 256 µg/mL. In addition, the “Antibacterial activity of the compound of Formula I, ATCC9027” value (“Antibacterial activity … ATCC9027” below) in test [2] was determined as 256 µg/mL. In addition, the “Antibacterial activity of the compound of Formula I, ATCC25922” value (“Antibacterial activity … ATCC25922” for short) in test [3] was found to be 256 µg/mL. Moreover, the “Antibacterial activity of the compound of Formula I, ATCC19606” value (shortened to “Antibacterial activity … ATCC19606”) in test [4] came out at 256 µg/mL. In test [5], the “Synergistic activity (FIC value) ATCC13883” value worked out at 0.31. In test [6], the “Synergistic activity (FIC value) ATCC9027” value was 0.31. Moreover, in test [7], the “Synergistic activity (FIC value) ATCC25922” value stood at 0.38. Moreover, the “Synergistic activity (FIC value) ATCC19606” value in test [8] is reported as 0.12.
For the molecule `CSc1cc2ccccn2c1-c1csc(N=C(N)N)n1` [Compound I-123], the MIC stood at 256 µg/mL (≈ 844 µM) in test [1] (read-out: Antibacterial activity of the compound of Formula I, ATCC13883); 256 µg/mL (≈ 844 µM) in test [2] (read-out: Antibacterial activity of the compound of Formula I, ATCC9027); 256 µg/mL (≈ 844 µM) in test [3] (read-out: Antibacterial activity of the compound of Formula I, ATCC25922); 256 µg/mL (≈ 844 µM) in test [4] (read-out: Antibacterial activity of the compound of Formula I, ATCC19606). In test [5], the “Synergistic activity (FIC value) ATCC13883” value is 0.09. Also, the “Synergistic activity (FIC value) ATCC9027” value in test [6] worked out at 0.06. Further, the “Synergistic activity (FIC value) ATCC25922” value in test [7] was 0.14. The “Synergistic activity (FIC value) ATCC19606” value in test [8] was 0.31.
For the molecule `NC(N)=Nc1nc(-c2cccc(Cl)c2)cs1` [Compound I-37], the “Antibacterial activity … ATCC13883” value in test [1] was found to be 256 µg/mL. In addition, the “Antibacterial activity … ATCC9027” value in test [2] was 256 µg/mL. For the same molecule, the “Antibacterial activity … ATCC25922” value in test [3] was determined as 256 µg/mL. Also, the “Antibacterial activity … ATCC19606” value in test [4] was determined as 256 µg/mL. For the same molecule, the “Synergistic activity (FIC value) ATCC13883” value in test [5] amounted to 1.25. Moreover, in test [6], the “Synergistic activity (FIC value) ATCC9027” value was 0.52. The “Synergistic activity (FIC value) ATCC25922” value in test [7] is 1.25. In addition, the “Synergistic activity (FIC value) ATCC19606” value in test [8] worked out at 0.25.
Consider `CSc1cc2ccccn2c1-c1c[nH]c(N=C2NCCCN2)n1` [Compound I-190], for which the “Antibacterial activity … ATCC13883” value in test [1] was found to be 256 µg/mL. In addition, in test [2], the “Antibacterial activity … ATCC9027” value was determined as 256 µg/mL. In addition, in test [3], the “Antibacterial activity … ATCC25922” value was found to be 256 µg/mL. The “Antibacterial activity … ATCC19606” value in test [4] amounted to 256 µg/mL. Also, in test [5], the “Synergistic activity (FIC value) ATCC13883” value turned out to be 1.25. Moreover, in test [6], the “Synergistic activity (FIC value) ATCC9027” value was found to be 1.25. For the same molecule, in test [7], the “Synergistic activity (FIC value) ATCC25922” value is 1.25. Also, the “Synergistic activity (FIC value) ATCC19606” value in test [8] is recorded as 0.75.
Turning to `COc1ccc(Oc2ccccc2-c2nc(N=C3NCCCN3)sc2C)c(C)c1` [Compound I-144], the “Antibacterial activity … ATCC13883” value in test [1] stood at 256 µg/mL. The “Antibacterial activity … ATCC9027” value in test [2] was 256 µg/mL. Besides, the “Antibacterial activity … ATCC25922” value in test [3] was 256 µg/mL. In test [4], the “Antibacterial activity … ATCC19606” value was determined as 256 µg/mL. Also, in test [5], the “Synergistic activity (FIC value) ATCC13883” value was 0.16. Further, the “Synergistic activity (FIC value) ATCC9027” value in test [6] is reported as 0.28. The “Synergistic activity (FIC value) ATCC25922” value in test [7] was 0.18. Also, the “Synergistic activity (FIC value) ATCC19606” value in test [8] turned out to be 0.03.
`NC(N)=Nc1nc(-c2cccc3c(Cl)cccc23)c[nH]1` [Compound I-65]: in test [1], the “Antibacterial activity … ATCC13883” value is 256 µg/mL. In addition, the “Antibacterial activity … ATCC9027” value in test [2] was 256 µg/mL. Besides, in test [3], the “Antibacterial activity … ATCC25922” value was 256 µg/mL. For the same molecule, in test [4], the “Antibacterial activity … ATCC19606” value is 256 µg/mL. Moreover, the “Synergistic activity (FIC value) ATCC13883” value in test [5] is on record as 1.25. For the same molecule, the “Synergistic activity (FIC value) ATCC9027” value in test [6] amounted to 1.25. Besides, the “Synergistic activity (FIC value) ATCC25922” value in test [7] was 1.25. The “Synergistic activity (FIC value) ATCC19606” value in test [8] was 0.5.
Take `CSc1cc2cc(C)cc(C)n2c1-c1nc(N=C2NCCCN2)sc1C` [Compound I-195]: the “Antibacterial activity … ATCC13883” value in test [1] came to 256 µg/mL. Also, the “Antibacterial activity … ATCC9027” value in test [2] was 256 µg/mL. The “Antibacterial activity … ATCC25922” value in test [3] was 256 µg/mL. The “Antibacterial activity … ATCC19606” value in test [4] came out at 256 µg/mL. The “Synergistic activity (FIC value) ATCC13883” value in test [5] was 0.25. Further, in test [6], the “Synergistic activity (FIC value) ATCC9027” value came out at 0.52. Also, in test [7], the “Synergistic activity (FIC value) ATCC25922” value is 0.31. The “Synergistic activity (FIC value) ATCC19606” value in test [8] was found to be 0.14.
For `Clc1cc(Oc2ccc(Cl)cc2Cl)cc(-c2csc(N=C3NCCCN3)n2)c1` [Compound I-160], in test [1], the “Antibacterial activity … ATCC13883” value came out at 256 µg/mL. Besides, the “Antibacterial activity … ATCC9027” value in test [2] is 256 µg/mL. Further, the “Antibacterial activity … ATCC25922” value in test [3] came out at 256 µg/mL. Further, the “Antibacterial activity … ATCC19606” value in test [4] was determined as 256 µg/mL. Moreover, the “Synergistic activity (FIC value) ATCC13883” value in test [5] is 0.16. Also, the “Synergistic activity (FIC value) ATCC9027” value in test [6] is reported as 0.28. Besides, the “Synergistic activity (FIC value) ATCC25922” value in test [7] is 0.18. For the same molecule, the “Synergistic activity (FIC value) ATCC19606” value in test [8] was 0.03.
On to `NC(N)=Nc1nc(-c2ccc(C(F)(F)F)cc2)cs1` [Compound I-43], for which the “Antibacterial activity … ATCC13883” value in test [1] worked out at 256 µg/mL. Also, in test [2], the “Antibacterial activity … ATCC9027” value was 256 µg/mL. The “Antibacterial activity … ATCC25922” value in test [3] came to 256 µg/mL. Also, the “Antibacterial activity … ATCC19606” value in test [4] came out at 256 µg/mL. Also, the “Synergistic activity (FIC value) ATCC13883” value in test [5] came to 1.25. Also, in test [6], the “Synergistic activity (FIC value) ATCC9027” value was 0.63. Moreover, in test [7], the “Synergistic activity (FIC value) ATCC25922” value turned out to be 0.5. For the same molecule, the “Synergistic activity (FIC value) ATCC19606” value in test [8] is 1.25.
With `COc1ccc(Oc2ccccc2-c2csc(N=C(N)N)n2)c(OC)c1` [Compound I-88], the “Antibacterial activity … ATCC13883” value in test [1] worked out at 256 µg/mL. Besides, the “Antibacterial activity … ATCC9027” value in test [2] was 256 µg/mL. In addition, the “Antibacterial activity … ATCC25922” value in test [3] came to 256 µg/mL. Further, in test [4], the “Antibacterial activity … ATCC19606” value was found to be 256 µg/mL. For the same molecule, in test [5], the “Synergistic activity (FIC value) ATCC13883” value amounted to 0.13. Moreover, the “Synergistic activity (FIC value) ATCC9027” value in test [6] came to 0.28. Besides, in test [7], the “Synergistic activity (FIC value) ATCC25922” value was found to be 0.2. For the same molecule, the “Synergistic activity (FIC value) ATCC19606” value in test [8] is reported as 0.04.
As to `Ic1ccccc1-c1c[nH]c(N=C2NCCCN2)n1` [Compound I-179], in test [1], the “Antibacterial activity … ATCC13883” value is 128 µg/mL. The “Antibacterial activity … ATCC9027” value in test [2] is 64 µg/mL. The “Antibacterial activity … ATCC25922” value in test [3] worked out at 128 µg/mL. Besides, in test [4], the “Antibacterial activity … ATCC19606” value amounted to 256 µg/mL. In test [5], the “Synergistic activity (FIC value) ATCC13883” value turned out to be 1.25. Also, the “Synergistic activity (FIC value) ATCC9027” value in test [6] is listed as 0.51. For the same molecule, the “Synergistic activity (FIC value) ATCC25922” value in test [7] is given as 1.25. Further, in test [8], the “Synergistic activity (FIC value) ATCC19606” value was found to be 1.25.
For `CC(C)=CCOc1cc(-c2nc(N=C(N)N)oc2Cl)cc(OCC=C(C)C)c1O` [Compound I-50], the “Antibacterial activity … ATCC13883” value in test [1] turned out to be 256 µg/mL. The “Antibacterial activity … ATCC9027” value in test [2] is 256 µg/mL. In addition, in test [3], the “Antibacterial activity … ATCC25922” value was found to be 256 µg/mL. In addition, the “Antibacterial activity … ATCC19606” value in test [4] was determined as 256 µg/mL. The “Synergistic activity (FIC value) ATCC13883” value in test [5] was determined as 0.16. Also, in test [6], the “Synergistic activity (FIC value) ATCC9027” value came to 0.31. The “Synergistic activity (FIC value) ATCC25922” value in test [7] is given as 0.26. Also, the “Synergistic activity (FIC value) ATCC19606” value in test [8] is on record as 0.13.
